# Measurements: patent US20070172957A1, “Methods of identifying anti-inflammatory macrolides” (TAISHO PHARMACEUTICAL CO., LTD., priority 2004, published 2007)
# Tested on: A549 cells
# Test: A549 microarray comparing macrolides with arachidonic acid pathway inhibitors, with IL-1β stimulation (Appendix C, Tables 6-9), and correlation analysis
# Type: cell-based
# Settings: for Total # Differential Genes (95% confidence): A549, IL1 vs IL1 + drug, threshold 1.3, macrolides 50 μM (FMA 10 μM), triacsin C 15 μM, indomethacin and dexamethasone 100 nM
# From the text: One inhibitor, triacsin C, acts on AA biosynthesis by inhibiting arachidonyl CoA synthetases, blocking the incorporation of free AA into phospholipids. Triacsin C is reasonably specific for AA compared to other fatty acids. However, triacsin C structurally resembles AA so it also may interfere with other steps in the AA pathway. Indomethacin is an inhibitor of COX1 and COX2 enzyme activities and therefore specifically blocks metabolism of AA into prostaglandins. […] It inhibits transcription of PLA2, and transcriptionally and post-transcriptionally regulates COX1 and COX2 activities. Dexamethasone has additional effects unrelated to AA through binding with the glucocorticoid receptor to glucocortcoid response elements.
# A549 cells were pre-incubated overnight (17 hours) with macrolides (10 μM FMA-9045, 50 μM clarithromycin, 50 μM roxithromycin, 50 μM josamycin) and 15 μM triacsin C, and pre-incubated 2 hours with 100 nM indomethacin and 100 nM dexamethasone. All cells then were stimulated for 4 hours with IL-1β, because the activation of PLA2 and downstream signaling events generally requires an inflammatory stimulus. The various treatment conditions are shown below in Table 4. Following macrolide and inhibitor pre-treatment and IL-1 stimulation, the cells were lysed, total RNA was collected, and the poly-A+ mRNA fraction was purified. The resulting microarray data (Appendix C) were analyzed using the methods described in the Examples above.
# The tables in Appendix C represent the effects of the arachidonic acid pathway inhibitors (“AA pathway inhibitors”) and the effects of the macrolides (“IL1+macrolide effects”). […] In both tables in Appendix C, the genes that meet this criterion (≧1.3 min fold change) are indicated in bold.
# Quantitative analysis was done to determine how well the responses to the different AA pathway inhibitors correlated. The correlation values were assigned a p-value to provide statistical confidence to the correlation value. Correlation between experiments, across all spots showing good detection, was assessed by cosine vector angle to generate the data shown in Tables 7-9. A correlation coefficient close to one indicates strong correlation, whereas a value near zero indicates no correlation. P-values for each correlation coefficient were estimated based on a Fisher permutation test. In this test, each spot's expression ratios were randomly re-ordered across experiments and the degree of correlation between experiments was then reassessed. This was done repeatedly.
# [1] = A549 cells, +IL1b +/- inhibitor
smiles,measurement,setting,value
CCC/C=C/C/C=C/C=C/C=N/NN=O [triacsin C],Total # Differential Genes (95% confidence),,228
same,FADS1 expression,"A549 cells, microarray",induced
C[C@@H]1C[C@H]2[C@@H]3CCC4=CC(=O)C=C[C@]4(C)[C@@]3(F)[C@@H](O)C[C@]2(C)[C@@]1(O)C(=O)CO [Dexa],"wtd means, SpotID 46796 STC1 (stanniocalcin 1)",[1],1.41
same,"wtd means, SpotID 46950 SERPINA3 (serine (or cysteine) proteinase inhibitor, clade A, member 3)",[1],1.39
same,"wtd means, SpotID 46985 RIPK2 (RIP2, RICK; receptor-interacting serine-threonine kinase 2)",[1],1.83
same,"wtd means, SpotID 47155 TNFAIP6 (tumor necrosis factor, alpha-induced protein 6)",[1],1.27
same,"wtd means, SpotID 47166 SERPINA6 (serine (or cysteine) proteinase inhibitor, clade A, member 6)",[1],1.33
same,"wtd means, SpotID 47444 TKT (transketolase (Wernicke-Korsakoff syndrome))",[1],0.83
same,"wtd means, SpotID 47569 STAT3 (signal transducer and activator of transcription 3)",[1],1.42
same,"wtd means, SpotID 47698 PTPRJ (protein tyrosine phosphatase, receptor type, J)",[1],1.38
same,"wtd means, SpotID 47987 THBS1 (thrombospondin 1)",[1],0.66
same,"wtd means, SpotID 48234 PTPRZ1 (PTP zeta; protein tyrosine phosphatase, receptor-type, Z polypeptide 1)",[1],1.00
same,"wtd means, SpotID 48239 TLN1 (talin 1)",[1],1.53
same,"wtd means, SpotID 48288 TRAF5 (TNF receptor-associated factor 5)",[1],1.42
same,"wtd means, SpotID 48359 RIPK1 (receptor (TNFRSF)-interacting serine-threonine kinase 1)",[1],1.61
same,"wtd means, SpotID 48392 RIPK1 (receptor (TNFRSF)-interacting serine-threonine kinase 1)",[1],1.62
same,"wtd means, SpotID 48395 TNFRSF7 (CD27; tumor necrosis factor receptor superfamily, member 7)",[1],1.53
same,"wtd means, SpotID 48485 UCP1 (uncoupling protein 1 (mitochondrial, proton carrier))",[1],1.00
same,"wtd means, SpotID 48500 RPL13A (ribosomal protein L13a)",[1],1.65
same,"wtd means, SpotID 48603 TEAD4 (TEA domain family member 4)",[1],1.67
same,"wtd means, SpotID 49330 TNFRSF7 (CD27; tumor necrosis factor receptor superfamily, member 7)",[1],1.76
same,"wtd means, SpotID 49899 WWOX (WW domain containing oxidoreductase)",[1],0.76
same,"wtd means, SpotID 49901 TROAP (trophinin associated protein (tastin))",[1],0.84
same,"wtd means, SpotID 50379 TNFRSF6 (FAS; tumor necrosis factor receptor superfamily, member 6)",[1],1.40
same,"wtd means, SpotID 50428 RPLP0 (ribosomal protein, large, P0)",[1],0.73
same,"wtd means, SpotID 50491 TNFRSF6B (DcR3; tumor necrosis factor receptor superfamily, member 6b, decoy)",[1],1.36
O=C(O)Cc1cc(I)c(Oc2ccc(O)c(I)c2)c(I)c1 [Triac],"min fold change, SpotID 46796 STC1 (stanniocalcin 1)",[1],1.00
same,"min fold change, SpotID 46950 SERPINA3 (serine (or cysteine) proteinase inhibitor, clade A, member 3)",[1],1.00
same,"min fold change, SpotID 46985 RIPK2 (RIP2, RICK; receptor-interacting serine-threonine kinase 2)",[1],1.43
same,"min fold change, SpotID 47155 TNFAIP6 (tumor necrosis factor, alpha-induced protein 6)",[1],1.02
same,"min fold change, SpotID 47166 SERPINA6 (serine (or cysteine) proteinase inhibitor, clade A, member 6)",[1],1.36
same,"min fold change, SpotID 47193 STAT3 (signal transducer and activator of transcription 3)",[1],1.32
same,"min fold change, SpotID 47332 SERPINB3 (serine (or cysteine) proteinase inhibitor, clade B (ovalbumin), member 3)",[1],1.06
same,"min fold change, SpotID 47444 TKT (transketolase (Wernicke-Korsakoff syndrome))",[1],1.16
same,"min fold change, SpotID 47569 STAT3 (signal transducer and activator of transcription 3)",[1],1.19
same,"min fold change, SpotID 47697 TNFRSF6B (DcR3; tumor necrosis factor receptor superfamily, member 6b, decoy)",[1],1.11
same,"min fold change, SpotID 47698 PTPRJ (protein tyrosine phosphatase, receptor type, J)",[1],1.11
same,"min fold change, SpotID 47987 THBS1 (thrombospondin 1)",[1],1.00
same,"min fold change, SpotID 48050 RPS6KA2 (ribosomal protein S6 kinase, 90 kD, polypeptide 2)",[1],1.12
same,"min fold change, SpotID 48234 PTPRZ1 (PTP zeta; protein tyrosine phosphatase, receptor-type, Z polypeptide 1)",[1],1.00
same,"min fold change, SpotID 48239 TLN1 (talin 1)",[1],1.34
same,"min fold change, SpotID 48288 TRAF5 (TNF receptor-associated factor 5)",[1],1.34
same,"min fold change, SpotID 48359 RIPK1 (receptor (TNFRSF)-interacting serine-threonine kinase 1)",[1],1.00
same,"min fold change, SpotID 48392 RIPK1 (receptor (TNFRSF)-interacting serine-threonine kinase 1)",[1],1.00
same,"min fold change, SpotID 48395 TNFRSF7 (CD27; tumor necrosis factor receptor superfamily, member 7)",[1],1.09
same,"min fold change, SpotID 48485 UCP1 (uncoupling protein 1 (mitochondrial, proton carrier))",[1],1.15
same,"min fold change, SpotID 48500 RPL13A (ribosomal protein L13a)",[1],1.25
same,"min fold change, SpotID 48594 RPS6KA2 (ribosomal protein S6 kinase, 90 kD, polypeptide 2)",[1],1.00
same,"min fold change, SpotID 48603 TEAD4 (TEA domain family member 4)",[1],1.38
same,"min fold change, SpotID 49330 TNFRSF7 (CD27; tumor necrosis factor receptor superfamily, member 7)",[1],1.51
same,"min fold change, SpotID 49899 WWOX (WW domain containing oxidoreductase)",[1],1.51
same,"min fold change, SpotID 49901 TROAP (trophinin associated protein (tastin))",[1],1.01
same,"min fold change, SpotID 50379 TNFRSF6 (FAS; tumor necrosis factor receptor superfamily, member 6)",[1],1.04
same,"min fold change, SpotID 50428 RPLP0 (ribosomal protein, large, P0)",[1],1.00
same,"min fold change, SpotID 50491 TNFRSF6B (DcR3; tumor necrosis factor receptor superfamily, member 6b, decoy)",[1],1.36
same,"wtd means, SpotID 46796 STC1 (stanniocalcin 1)",[1],1.05
same,"wtd means, SpotID 46950 SERPINA3 (serine (or cysteine) proteinase inhibitor, clade A, member 3)",[1],1.06
same,"wtd means, SpotID 46985 RIPK2 (RIP2, RICK; receptor-interacting serine-threonine kinase 2)",[1],1.70
same,"wtd means, SpotID 47155 TNFAIP6 (tumor necrosis factor, alpha-induced protein 6)",[1],1.08
same,"wtd means, SpotID 47166 SERPINA6 (serine (or cysteine) proteinase inhibitor, clade A, member 6)",[1],1.48
same,"wtd means, SpotID 47193 STAT3 (signal transducer and activator of transcription 3)",[1],1.47
same,"wtd means, SpotID 47332 SERPINB3 (serine (or cysteine) proteinase inhibitor, clade B (ovalbumin), member 3)",[1],1.22
same,"wtd means, SpotID 47444 TKT (transketolase (Wernicke-Korsakoff syndrome))",[1],0.76
same,"wtd means, SpotID 47569 STAT3 (signal transducer and activator of transcription 3)",[1],1.34
same,"wtd means, SpotID 47697 TNFRSF6B (DcR3; tumor necrosis factor receptor superfamily, member 6b, decoy)",[1],1.24
same,"wtd means, SpotID 47698 PTPRJ (protein tyrosine phosphatase, receptor type, J)",[1],1.17
same,"wtd means, SpotID 47987 THBS1 (thrombospondin 1)",[1],0.87
same,"wtd means, SpotID 48234 PTPRZ1 (PTP zeta; protein tyrosine phosphatase, receptor-type, Z polypeptide 1)",[1],1.00
same,"wtd means, SpotID 48239 TLN1 (talin 1)",[1],1.41
same,"wtd means, SpotID 48288 TRAF5 (TNF receptor-associated factor 5)",[1],1.60
same,"wtd means, SpotID 48359 RIPK1 (receptor (TNFRSF)-interacting serine-threonine kinase 1)",[1],1.27
same,"wtd means, SpotID 48392 RIPK1 (receptor (TNFRSF)-interacting serine-threonine kinase 1)",[1],1.08
same,"wtd means, SpotID 48395 TNFRSF7 (CD27; tumor necrosis factor receptor superfamily, member 7)",[1],1.50
same,"wtd means, SpotID 48485 UCP1 (uncoupling protein 1 (mitochondrial, proton carrier))",[1],1.59
same,"wtd means, SpotID 48500 RPL13A (ribosomal protein L13a)",[1],1.37
same,"wtd means, SpotID 48603 TEAD4 (TEA domain family member 4)",[1],1.65
same,"wtd means, SpotID 49330 TNFRSF7 (CD27; tumor necrosis factor receptor superfamily, member 7)",[1],1.73
same,"wtd means, SpotID 49899 WWOX (WW domain containing oxidoreductase)",[1],1.62
same,"wtd means, SpotID 49901 TROAP (trophinin associated protein (tastin))",[1],0.90
same,"wtd means, SpotID 50379 TNFRSF6 (FAS; tumor necrosis factor receptor superfamily, member 6)",[1],1.41
same,"wtd means, SpotID 50428 RPLP0 (ribosomal protein, large, P0)",[1],0.84
same,"wtd means, SpotID 50491 TNFRSF6B (DcR3; tumor necrosis factor receptor superfamily, member 6b, decoy)",[1],1.56
C[C@@H]1C[C@H]2[C@@H]3CCC4=CC(=O)C=C[C@]4(C)[C@@]3(F)[C@@H](O)C[C@]2(C)[C@@]1(O)C(=O)CO [dexamethasone],Total # Differential Genes (95% confidence),,341
